According to ChEMBL document CHEMBL1140541, “Potent 2'-aminoanilide inhibitors of cFMS as potential anti-inflammatory agents” (Bioorg Med Chem Lett, 2007):
pIC50: −log10 of the molar value.

Assays:
[1] = target: T1, Macrophage colony-stimulating factor 1 receptor (Homo sapiens, UniProt P07333); experiment: Inhibition of ATP-induced autophosphorylation of cFMS tyrosine kinase
[2] = target: T1, Macrophage colony-stimulating factor 1 receptor; experiment: Inhibition of ATP-induced autophosphorylation of cFMS tyrosine kinase in HEK 293 cells; assay type: cell-based, HEK293
[3] = Metabolic stability in human liver microsomes after 10 mins; assay type: ADME, Microsome; details: read-out: Stability

T1 sequence (P07333 whole entry): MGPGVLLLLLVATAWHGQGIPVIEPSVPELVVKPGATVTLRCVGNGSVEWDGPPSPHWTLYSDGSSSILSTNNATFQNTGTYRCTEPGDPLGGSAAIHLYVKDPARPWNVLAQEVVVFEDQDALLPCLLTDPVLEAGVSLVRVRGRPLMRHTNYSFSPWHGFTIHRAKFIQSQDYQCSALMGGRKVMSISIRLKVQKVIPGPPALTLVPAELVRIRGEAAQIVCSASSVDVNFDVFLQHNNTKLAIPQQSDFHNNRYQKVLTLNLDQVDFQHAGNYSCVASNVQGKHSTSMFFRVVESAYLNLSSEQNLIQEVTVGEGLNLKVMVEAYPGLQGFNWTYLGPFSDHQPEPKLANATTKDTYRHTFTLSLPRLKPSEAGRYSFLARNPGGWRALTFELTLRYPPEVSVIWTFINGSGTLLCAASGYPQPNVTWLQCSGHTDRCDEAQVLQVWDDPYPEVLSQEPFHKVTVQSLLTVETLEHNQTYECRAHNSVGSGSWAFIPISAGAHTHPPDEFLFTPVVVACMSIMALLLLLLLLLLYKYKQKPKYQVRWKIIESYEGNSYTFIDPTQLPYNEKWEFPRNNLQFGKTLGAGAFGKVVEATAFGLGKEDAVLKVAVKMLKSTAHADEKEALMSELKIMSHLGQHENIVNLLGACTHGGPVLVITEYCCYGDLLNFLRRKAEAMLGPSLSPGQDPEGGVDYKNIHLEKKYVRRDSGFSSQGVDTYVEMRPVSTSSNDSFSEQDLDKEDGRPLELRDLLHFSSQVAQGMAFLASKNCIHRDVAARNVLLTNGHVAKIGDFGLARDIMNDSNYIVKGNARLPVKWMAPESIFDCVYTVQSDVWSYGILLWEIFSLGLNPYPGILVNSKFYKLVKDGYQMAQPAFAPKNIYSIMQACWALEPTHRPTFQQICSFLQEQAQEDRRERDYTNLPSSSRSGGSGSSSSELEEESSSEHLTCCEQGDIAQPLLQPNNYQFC

Row | SMILES | pIC50 [1] | pIC50 [2] | remaining at 10 min [3]
1 | NC(=O)c1ccc(C(=O)Nc2ccccc2N2CCCCC2)o1 | < 5.00 | – | –
2 | N#Cc1ccc(C(=O)Nc2cc(CN)ccc2N2CCCCC2)o1 | 6.70 | 5.51 | –
3 | O=C(Nc1ccccc1N1CCC(CO)CC1)c1ccc([N+](=O)[O-])o1 | 6.89 | 5.85 | –
4 | CS(=O)(=O)NCc1ccc(N2CCCCC2)c(NC(=O)c2ccc(C#N)o2)c1 | 7.43 | 6.51 | –
5 | N#Cc1ccc(C(=O)Nc2cc(CO)ccc2N2CCCCC2)o1 | 7.60 | 6.72 | 25%
6 | O=C(Nc1ccccc1N1C=CC=CC=C1)c1ccc([N+](=O)[O-])o1 | 6.59 | 5.70 | –
7 | N#Cc1ccc(C(=O)Nc2cc(N3CCCCC3)ccc2N2CCCCC2)o1 | 7.77 | 7.12 | –
8 | N#Cc1c[nH]c(C(=O)Nc2ccccc2N2CCCCC2)c1 | 7.33 | 6.82 | –
9 | O=C(Nc1ccccc1N1CCCC1)c1ccc([N+](=O)[O-])o1 | 5.72 | – | –
10 | O=C(Nc1ccccc1N1CCCCC1)c1ccc(Nc2ccccc2)o1 | < 5.00 | – | –
11 | O=C(Nc1ccccc1N1CCOCC1)c1ccc([N+](=O)[O-])o1 | 5.96 | – | –
12 | O=C(Nc1ccccc1N1CCCCC1)c1ccc([N+](=O)[O-])o1 | – | – | 41%
13 | CC1CCN(c2ccc(CO)cc2NC(=O)c2ccc(C#N)o2)CC1 | – | – | 83%
14 | O=Cc1ccc(C(=O)Nc2ccccc2N2CCCCC2)o1 | 5.96 | – | –
15 | O=C(Nc1ccccc1N1CCC(CO)C1)c1ccc([N+](=O)[O-])o1 (stereo unspecified) | < 5.00 | – | –
16 | CCCN(CC)c1ccccc1NC(=O)c1ccc([N+](=O)[O-])o1 | < 5.00 | – | –
17 | O=C(Nc1ccccc1N1CCC(O)C1)c1ccc([N+](=O)[O-])o1 (stereo unspecified) | < 5.00 | – | –
18 | O=C(Nc1ccccc1N1CCCCC1)c1ccc(Br)o1 | 5.36 | – | –
19 | O=C(Nc1ccccc1Nc1ccccc1)c1ccc([N+](=O)[O-])o1 | < 5.00 | – | –
20 | O=C(Nc1ccccc1N1CCCCC1)c1ccc(Cl)o1 | 5.72 | – | –
21 | O=C(O)c1ccc(C(=O)Nc2ccccc2N2CCCCC2)o1 | < 5.00 | – | –
22 | CC1CCCN(c2ccccc2NC(=O)c2ccc([N+](=O)[O-])o2)C1 (stereo unspecified) | 6.42 | 5.66 | –
23 | N#Cc1ccc(C(=O)Nc2ccccc2N2CCCCC2)o1 | 7.44 | 6.43 | –
24 | O=C(Nc1ccccc1N1CCC(O)CC1)c1ccc([N+](=O)[O-])o1 | 6.85 | 6.43 | –
25 | O=C(Nc1ccccc1N1CCCCC1)c1ccco1 | < 5.00 | – | –
26 | N#Cc1ccc(C(=O)Nc2cc(O)ccc2N2CCCCC2)o1 | 7.77 | 5.57 | –

Results, then the molecule that gave them:

Row | pIC50 [1] | pIC50 [2] | remaining at 10 min [3] | SMILES
27 | < 5.00 | – | – | O=C(Nc1ccccc1N1CCCCC1)c1ccc(-c2ccccc2)o1
28 | < 5.00 | – | – | O=C(Nc1ccccc1N1CCCCC1)c1ccc(C(F)(F)F)o1
29 | 6.14 | – | – | CC1CCCCN1c1ccccc1NC(=O)c1ccc([N+](=O)[O-])o1 (stereo unspecified)
30 | 7.11 | 6.52 | 100% | CC1CCN(c2ccccc2NC(=O)c2ccc([N+](=O)[O-])o2)CC1
31 | < 5.00 | – | – | O=C(Nc1ccccc1N1CCNCC1)c1ccc([N+](=O)[O-])o1
32 | 7.47 | 5.59 | – | N#Cc1ccc(C(=O)Nc2cc(CN=C(N)N)ccc2N2CCCCC2)o1
33 | 7.05 | 6.02 | – | COc1ccc(N2CCCCC2)c(NC(=O)c2ccc(C#N)o2)c1
34 | < 5.00 | – | – | CCCN(CCC)c1ccccc1NC(=O)c1ccc([N+](=O)[O-])o1
35 | < 5.00 | – | – | O=C(Nc1ccccc1N1CCN(c2ccccc2)CC1)c1ccc([N+](=O)[O-])o1
36 | 6.92 | 6.12 | – | N#Cc1ccc(N2CCCCC2)c(NC(=O)c2ccc(C#N)o2)c1
37 | < 5.00 | – | – | O=C(Nc1ccccc1N1CCC1)c1ccc([N+](=O)[O-])o1
38 | < 5.00 | – | – | Nc1ccc(C(=O)Nc2ccccc2N2CCCCC2)o1
39 | < 5.70 | < 5.70 | – | N#Cc1ccc(C(=O)Nc2cc(C(=O)O)ccc2N2CCCCC2)o1
40 | 7.43 | 6.48 | – | N#Cc1ccc(C(=O)Nc2cc(C=O)ccc2N2CCCCC2)o1
41 | 7.72 | 6.77 | – | N#Cc1ccc(C(=O)Nc2cc(COCC(O)CO)ccc2N2CCCCC2)o1 (stereo unspecified)
42 | 7.37 | 6.64 | – | O=C(Nc1ccccc1N1CCC(CCO)CC1)c1ccc([N+](=O)[O-])o1
43 | 7.33 | 6.74 | – | O=C(Nc1ccccc1N1CCCCC1)c1cc([N+](=O)[O-])c[nH]1
44 | 5.28 | – | – | CC1CC(C)CN(c2ccccc2NC(=O)c2ccc([N+](=O)[O-])o2)C1 (stereo unspecified)
